“Also recorded” adds a separate entry of the source.
What was measured:
HepG2 cells = test: cell penetration, fluorescence and confocal microscopy; active vs. passive transport; format: cell-based, human
Method: (§1) Cell Culture and Treatment. HepG2 (expressing wild-type p53) and Huh7 (expressing mutant p53) cell lines were purchased from the American Type Culture Collection (ATCC) and cultured as monolayers in Dulbecco’s modified Eagle’s medium (DMEM) (Invitrogen) supplemented with 100 mM nonessential amino acid solution, 100 mM sodium pyruvate, 100 U/mL penicillin, 100 μg/mL streptomycin, and 10% heat inactivated fetal bovine serum (FBS) (all from Hyclone).
(§2) Cells were maintained at 37° C and 5% CO2 and were treated with media that contained 0.5%
FBS. Nutlin-3 (Sigma) was dissolved in 0.01% DMSO (Sigma). This concentration of DMSO did not affect the cell phenotype. Both nutlin-3 and spiroligomers were added into the medium for final concentrations of 2 µM, 5 µM, 10 µM and 20 µM for 24 hours. For the western blot experiments detailed below, the time length for incubation with bis-peptide was 17 hours.
Fluorescence and Confocal Microscopy. Fluorescence and confocal microscopy were applied to live and fixed cells. Cells were grown on glass chambers and fixed with ice-cold 95:5 ethanol/acetic acid for 10 minutes at -20 °C. Sections were washed with PBS and mounted in Vectashield aqueous mounting medium with DAPI (Vector laboratories). Fluorescent specimens were analyzed using an ECLIPSE Ti microscope (Nikon), lenses with hardened […]
(1 picture or pasted object on this page, not shown here) […]
filters (Nikon), and a Nikon DS-Fi1 camera, which was operated by NIS Elements computer software (Nikon). Confocal microscopy was performed with a Leica SP-1 microscope, with illumination at 488 nm and spectral detection. […]
Mathematical model described8 and MxPro software (Stratagene) were used to process PCR data. End-point PCR reactions were assayed with PCR Master Mix (Promega). Samples were amplified in 34 cycles; each cycle consisted of 30 sec of denaturation at 95 °C, 30 sec of annealing at 60 °C, and 30 sec of elongation at 72 °C. After 34 cycles, samples were subjected to final elongation for 5 minutes at 72 °C. […]
fluorescence in the images.

HDMX = molecular target: T1, HDMX (Homo sapiens, UniProt O15151); test: binding experiments with HDMX
T1 sequence (O15151 1-490): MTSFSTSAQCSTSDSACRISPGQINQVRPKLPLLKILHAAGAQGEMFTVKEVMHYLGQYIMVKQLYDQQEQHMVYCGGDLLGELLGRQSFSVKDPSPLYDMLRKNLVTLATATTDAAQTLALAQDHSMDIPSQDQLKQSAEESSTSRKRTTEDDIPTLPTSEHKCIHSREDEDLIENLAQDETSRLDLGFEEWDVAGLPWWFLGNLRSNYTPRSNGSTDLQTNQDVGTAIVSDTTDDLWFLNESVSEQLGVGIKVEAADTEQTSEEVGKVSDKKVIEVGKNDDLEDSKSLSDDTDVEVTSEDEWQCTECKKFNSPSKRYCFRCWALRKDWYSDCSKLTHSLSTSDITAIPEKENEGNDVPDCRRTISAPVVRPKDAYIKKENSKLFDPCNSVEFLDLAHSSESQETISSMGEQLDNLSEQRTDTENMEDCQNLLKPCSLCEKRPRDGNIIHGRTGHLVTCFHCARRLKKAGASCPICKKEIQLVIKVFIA

[1] = system: HDM2, p53Y220C and p21 in Huh7 cells; test: Western blot analysis of HDM2, p53 and p21; format: cell-based, human
Method: Huh7 cells were incubated with spiroligomer 1 and Nutlin-3 in media at 2, 5, 10 and 20 µM for 17 hours at 37°C. […] Huh7 cells were then incubated with 1 at 15 µM and cells were harvested at 2, 4, 6, 8, 12 and 24 hours. […]
as §1, §2
FBS. Nutlin-3 (Sigma) was dissolved in 0.01% DMSO (Sigma).
Both nutlin-3 and spiroligomers were added into the medium for final concentrations of 2 µM, 5 µM, 10 µM and 20 µM for 24 hours. For the western blot experiments detailed below, the time length for incubation with bis-peptide was 17 hours. […]
Western Blotting. For protein extraction, cells were lysed in cell lysis buffer (Cell Signaling) with a protease inhibitor cocktail for 20 minutes on ice. Protein extracts (50 μg) were separated by SDS-PAGE electrophoresis, transferred to nitrocellulose membranes (Schleicher & Schuell), and incubated overnight with primary antibodies to p53, HDM2, p21, and β-actin (all from Santa Cruz Biotechnology). The blots were developed using ECL plus detection system (Amersham Biosciences) and exposed to Kodak imaging films (Kodak BioMax). Images were quantified using ImageJ software (NIH).
Figure S.5. Detection of bis-peptide 1 and Nutlin-3 in HepG2 (left) and Huh7 (right) cells. The concentration of each compound is given in μM and the three proteins (HDM2, p53 and p21) bands are […]

[2] = Huh7, 2, 5, 10 and 20 µM, 17 hours, 37°C

CC(C)CN1C(=O)[C@@H]2C[C@@]3(CN2C(=O)[C@@]12C[C@H]1C(=O)N(Cc4ccc(Cl)c(Cl)c4)[C@]4(C[C@@H]5C(=O)N[C@@H](CCc6ccccc6)C(=O)N5C4)C(=O)N1C2)NC(=O)[C@@H](CCCCNC(=S)Nc1ccc2c(c1)C(=O)OC21c2ccc(O)cc2Oc2cc(O)ccc21)NC3=O [Compound 1]
mechanism of cell penetration (HepG2 cells): passive diffusion
uptake of fluorescence with active transport inhibited (HepG2 cells; HepG2, 37°C, 60 min pre-treatment with 10 mM sodium azide and 50 mM deoxy-D-glucose, 5 µM, 3.75 hours): indistinguishable from control cells treated with 1 at 37 °C
selectivity HDM2 versus HDMX (HDMX; Kd HDM2 0.4 µM versus Kd HDMX 19 µM): selective for HDM2
Kd (HDMX; data not shown): 19 µM
p53Y220C levels with time ([1]; Huh7, 15 µM, harvested at 2, 4, 6, 8, 12 and 24 hours): no change in p53Y220C levels with time; also recorded: no effect on p53Y220C levels
p21 levels [1, 2]: did not change
p53Y220C levels [1, 2]: did not change
HDM2 levels relative to control cells ([1]; Huh7, 2, 5, 10 and 20 µM, 17 hours, 37°C, dose-dependent): more than 30 fold
